{"source": "patent US20260199485A1", "about": "“RNA DEGRADERS AND USES THEREOF” (Arrakis Therapeutics, Inc., priority 2022, published 2026)", "key": {"STAT3 mRNA": {"tested_on": "STAT3 mRNA", "assay": "Endogenous STAT3 mRNA expression assay (ddPCR) in H1299 cells expressing tagged CNOT7", "format": "cell-based", "conditions": "200 nM ASO-bait, 24 hours, with CNOT7, relative to non-targeting ASO-bait and GFP control", "method": "For the endogenous mRNA expression assay, H1299 cells were seeded in a 12-well plate the day before transfection. On the following day, the cells were transfected with the plasmid expressing tagged CNOT7 and incubated for 24 hours. The following day, cells were transfected with 200 nM of the targeting or non-targeting ASO-bait molecules and incubated for 24 hours. In addition, cells were also transfected with a known STAT3 silencing ASO as a positive control for STAT3 mRNA knockdown. Samples were directly lysed in-well for RNA purification using the Promega Maxwell Automated RNA Extractor, followed by single-strand cDNA synthesis. The resulting cDNA was serially diluted at 1:100, which was used in the ddPCR reaction with primers designed to STAT3 and housekeeping genes (CLTC and TBP), the sequences of which are shown below. Data were analyzed by normalizing STAT3 relative to the geomean of TBP and CLTC. All transfections were performed using Lipofectamine 3000 (Invitrogen). […] Thus, the bifunctional molecule is capable of accelerating the degradation of endogenously expressed RNA."}, "[1]": {"tested_on": "Renilla STAT3 3′UTR reporter", "assay": "Cellular dual luciferase reporter assay (Renilla STAT3 3′UTR reporter, tagged CNOT7) in H1299 cells", "format": "cell-based", "conditions": "10 nM, 30 nM, 100 nM ASO-bait, 24 hours, with CNOT7, relative to non-targeting ASO-bait", "text": "Reporter constructs for cellular assays are depicted in FIG. 12. A luciferase reporter construct was designed to the 3′ UTR of STAT3 fused to Renilla luciferase, which contains the PEST and CP1 destabilizing domains. A second luciferase reporter construct was designed using the 3′UTR of HBB fused to Firefly luciferase, which contains the PEST and CP1 destabilizing domains. The reporter design for both constructs was previously described in Luo E C, et al. Nat Struct Mol Biol. 2020; 27(10):989-1000.\nAn antisense oligo was conjugated to the bait molecule AP1867, which binds FKPB12 via click-chemistry to generate a heterobifunctional molecule (ASO-bait). The bait molecule was chemically modified to contain an azide to allow for click chemistry. […]\nA model system to interrogate the ability of a bifunctional RNA binder—CNOT7 binder is depicted in FIG. 13. A parallel approach utilizing a luciferase readout together with mRNA expression analysis was employed to assess the bifunctional molecule's capability to recruit CNOT7 to target mRNA and mediate mRNA degradation. […] A parallel plate was assessed for cell viability using CellTiter Glo (Promega). Data was analyzed by normalizing reporter signal relative to normalizer signal, and this ratio was then normalized to GFP. […]"}}, "note": "{DBCO-TEG} = DBCO-TEG group for click conjugation of the bait; l = locked nucleic acid (LNA); d = 2'-deoxy (DNA)"}
{"substance": "targeting ASO-bait: \"An antisense oligo was conjugated to the bait molecule AP1867\"; oligonucleotide binds \"a sequence in the 3′UTR of STAT3\" (SEQ ID NO:3) (antisense GAAGTACACATTGG; sugars from the 5' end dldldldldldldl, all phosphorothioate, 5' {DBCO-TEG}, methylation of C not given here; Bait AP1867 attached by click chemistry to the 5' DBCO-TEG)", "values": [{"measurement": "STAT3 expression (mRNA, ddPCR, normalized to TBP and CLTC)", "setting": "STAT3 mRNA", "result": "reduction in STAT3 expression"}, {"measurement": "reporter signal (Renilla STAT3 3′UTR normalized to Firefly HBB and GFP)", "setting": "[1]", "result": "reduction in reporter signal"}]}
